What was measured:
wild oat [1] = assay: Test Example 4: herbicidal effect by soil treatment (Table 19, symbol I); type: in vivo, wild oat (Avena fatua); conditions: AAH 320 g/ha
Method in brief: (§1)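 Seeds were sown in sterilized diluvial soil and covered with about 1.5 cm of soil. An emulsion formulation diluted with water to a predetermined herbicide amount was sprayed evenly onto the soil surface. Plants grew in a greenhouse at 25° C. to 30° C., and the effect was scored three weeks after application using criteria from an earlier test.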

Italian ryegrass [2] = assay: Test Example 5: herbicidal effect by foliage application, plastic box (Table 20, symbol K); type: in vivo, Italian ryegrass (Lolium multiflorum); conditions: foliage application, AAH 320 g/ha, three weeks after application
Method in brief: (§2)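 Plants sown in sterilized diluvial soil and grown 14 days in a greenhouse at 25° C to 30° C, then sprayed on the foliage with the compound's emulsion diluted in water to a predetermined herbicide amount. Injury to weeds and crops scored three weeks after application on a visual rating scale.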

windgrass [3] = assay: Test Example 5: herbicidal effect by foliage application, plastic box (Table 20, symbol L); type: in vivo, windgrass (Apera spica-venti); conditions: foliage application, AAH 320 g/ha, three weeks after application
Method in brief: as §2

velvetleaf [4] = assay: Test Example 5: herbicidal effect by foliage application, plastic box (Table 20, symbol M); type: in vivo, velvetleaf (Abutilon theophrasti); conditions: foliage application, AAH 320 g/ha, three weeks after application
Method in brief: as §2

Chinese sprangletop = assay: Test Example 3: herbicidal effect by foliage application, Wagner pot (Table 18, symbol D); type: in vivo, chinese sprangletop (Leptochloa chinensis); conditions: 320 g/ha
Method in brief: (§3)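 Plants were sown in alluvial soil held under 0.1–0.5 cm standing water and grown 14 days in a greenhouse at 25–30 °C. An emulsifiable formulation, water-diluted to the set dose, was then sprayed onto the foliage, and effects were scored three weeks later using previously defined criteria.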

redroot pigweed [5] = assay: Test Example 4: herbicidal effect by soil treatment (Table 19, symbol N); type: in vivo, redroot pigweed (Amaranthus retroflexus); conditions: AAH 320 g/ha
Method in brief: as §1

wild oat [6] = assay: Test Example 5: herbicidal effect by foliage application, plastic box (Table 20, symbol I); type: in vivo, wild oat (Avena fatua); conditions: foliage application, AAH 320 g/ha, three weeks after application
Method in brief: as §2

green foxtail [7] = assay: Test Example 4: herbicidal effect by soil treatment (Table 19, symbol G); type: in vivo, green foxtail (Setaria viridis); conditions: AAH 320 g/ha
Method in brief: as §1

chickweed [8] = assay: Test Example 4: herbicidal effect by soil treatment (Table 19, symbol P); type: in vivo, common chickweed (Stellaria media); conditions: AAH 320 g/ha
Method in brief: as §1

persian speedwell [9] = assay: Test Example 4: herbicidal effect by soil treatment (Table 19, symbol R); type: in vivo, Persian speedwell (Veronica persica); conditions: AAH 320 g/ha
Method in brief: as §1

barnyard grass [10] = assay: Test Example 5: herbicidal effect by foliage application, plastic box (Table 20, symbol H); type: in vivo, barnyard grass (Echinochloa crus-galli); conditions: foliage application, AAH 320 g/ha, three weeks after application
Method in brief: as §2

blackgrass [11] = assay: Test Example 5: herbicidal effect by foliage application, plastic box (Table 20, symbol J); type: in vivo, blackgrass (Alopecurus myosuroides); conditions: foliage application, AAH 320 g/ha, three weeks after application
Method in brief: as §2

lambsquarters [12] = assay: Test Example 5: herbicidal effect by foliage application, plastic box (Table 20, symbol O); type: in vivo, lambsquarters (Chenopodium album); conditions: foliage application, AAH 320 g/ha, three weeks after application
Method in brief: as §2

velvetleaf [13] = assay: Test Example 4: herbicidal effect by soil treatment (Table 19, symbol M); type: in vivo, velvetleaf (Abutilon theophrasti); conditions: AAH 320 g/ha
Method in brief: as §1

windgrass [14] = assay: Test Example 4: herbicidal effect by soil treatment (Table 19, symbol L); type: in vivo, windgrass (Apera spica-venti); conditions: AAH 320 g/ha
Method in brief: as §1

barnyard grass [15] = assay: Test Example 4: herbicidal effect by soil treatment (Table 19, symbol H); type: in vivo, barnyard grass (Echinochloa crus-galli); conditions: AAH 320 g/ha
Method in brief: as §1

Italian ryegrass [16] = assay: Test Example 4: herbicidal effect by soil treatment (Table 19, symbol K); type: in vivo, Italian ryegrass (Lolium multiflorum); conditions: AAH 320 g/ha
Method in brief: as §1

green foxtail [17] = assay: Test Example 5: herbicidal effect by foliage application, plastic box (Table 20, symbol G); type: in vivo, green foxtail (Setaria viridis); conditions: foliage application, AAH 320 g/ha, three weeks after application
Method in brief: as §2

southern crabgrass [18] = assay: Test Example 4: herbicidal effect by soil treatment (Table 19, symbol F); type: in vivo, southern crabgrass (Digitaria ciliaris); conditions: AAH 320 g/ha
Method in brief: as §1

persian speedwell [19] = assay: Test Example 5: herbicidal effect by foliage application, plastic box (Table 20, symbol R); type: in vivo, Persian speedwell (Veronica persica); conditions: foliage application, AAH 320 g/ha, three weeks after application
Method in brief: as §2

chickweed [20] = assay: Test Example 5: herbicidal effect by foliage application, plastic box (Table 20, symbol P); type: in vivo, common chickweed (Stellaria media); conditions: foliage application, AAH 320 g/ha, three weeks after application
Method in brief: as §2

redroot pigweed [21] = assay: Test Example 5: herbicidal effect by foliage application, plastic box (Table 20, symbol N); type: in vivo, redroot pigweed (Amaranthus retroflexus); conditions: foliage application, AAH 320 g/ha, three weeks after application
Method in brief: as §2

rice flat sedge = assay: Test Example 3: herbicidal effect by foliage application, Wagner pot (Table 18, symbol E); type: in vivo, rice flat sedge (Cyperus iria); conditions: 320 g/ha
Method in brief: as §3

lambsquarters [22] = assay: Test Example 4: herbicidal effect by soil treatment (Table 19, symbol O); type: in vivo, lambsquarters (Chenopodium album); conditions: AAH 320 g/ha
Method in brief: as §1

barnyard grass [23] = assay: Test Example 3: herbicidal effect by foliage application, Wagner pot (Table 18, symbol H); type: in vivo, barnyard grass (Echinochloa crus-galli); conditions: 320 g/ha
Method in brief: as §3

blackgrass [24] = assay: Test Example 4: herbicidal effect by soil treatment (Table 19, symbol J); type: in vivo, blackgrass (Alopecurus myosuroides); conditions: AAH 320 g/ha
Method in brief: as §1

southern crabgrass [25] = assay: Test Example 5: herbicidal effect by foliage application, plastic box (Table 20, symbol F); type: in vivo, southern crabgrass (Digitaria ciliaris); conditions: foliage application, AAH 320 g/ha, three weeks after application
Method in brief: as §2

## CCCC(=O)Oc1c(C)nn(C)c(=O)c1-c1c(-c2cccc(C#N)c2)sc2ccccc12 [1-124]
Wild oat [1]
  I: wild oat, herbicidal effect rating: 0 (Herbicidal rate of 5% or less (almost no effect))
Italian ryegrass [2]
  K: Italian ryegrass, herbicidal effect: 0 (Herbicidal rate of 5% or less (almost no effect))
Windgrass [3]
  L: windgrass, herbicidal effect: 0 (Herbicidal rate of 5% or less (almost no effect))
Velvetleaf [4]
  M: velvetleaf, herbicidal effect: 3 (Herbicidal rate of 40% or more and less than 70%)
Chinese sprangletop
  herbicidal effect on D (Chinese sprangletop), rating 0-5: 2 (Herbicidal rate of 20% or more and less than 40%)
Redroot pigweed [5]
  N: redroot pigweed, herbicidal effect rating: 0 (Herbicidal rate of 5% or less (almost no effect))
Wild oat [6]
  I: wild oat, herbicidal effect: 0 (Herbicidal rate of 5% or less (almost no effect))
Green foxtail [7]
  G: green foxtail, herbicidal effect rating: 0 (Herbicidal rate of 5% or less (almost no effect))
Chickweed [8]
  P: chickweed, herbicidal effect rating: 3 (Herbicidal rate of 40% or more and less than 70%)
Persian speedwell [9]
  R: persian speedwell, herbicidal effect rating: 0 (Herbicidal rate of 5% or less (almost no effect))
Barnyard grass [10]
  H: barnyard grass, herbicidal effect: 0 (Herbicidal rate of 5% or less (almost no effect))
Blackgrass [11]
  J: blackgrass, herbicidal effect: 0 (Herbicidal rate of 5% or less (almost no effect))
Lambsquarters [12]
  O: lambsquarters, herbicidal effect: 3 (Herbicidal rate of 40% or more and less than 70%)
Velvetleaf [13]
  M: velvetleaf, herbicidal effect rating: 0 (Herbicidal rate of 5% or less (almost no effect))
Windgrass [14]
  L: windgrass, herbicidal effect rating: 0 (Herbicidal rate of 5% or less (almost no effect))
Barnyard grass [15]
  H: barnyard grass, herbicidal effect rating: 0 (Herbicidal rate of 5% or less (almost no effect))
Italian ryegrass [16]
  K: Italian ryegrass, herbicidal effect rating: 0 (Herbicidal rate of 5% or less (almost no effect))
Green foxtail [17]
  G: green foxtail, herbicidal effect: 0 (Herbicidal rate of 5% or less (almost no effect))
Southern crabgrass [18]
  F: southern crabgrass, herbicidal effect rating: 0 (Herbicidal rate of 5% or less (almost no effect))
Persian speedwell [19]
  R: persian speedwell, herbicidal effect: 1 (Herbicidal rate of 5% or more and less than 20%)
Chickweed [20]
  P: chickweed, herbicidal effect: 0 (Herbicidal rate of 5% or less (almost no effect))
Redroot pigweed [21]
  N: redroot pigweed, herbicidal effect: 4 (Herbicidal rate of 70% or more and less than 90%)
Rice flat sedge
  herbicidal effect on E (rice flat sedge), rating 0-5: 3 (Herbicidal rate of 40% or more and less than 70%)
Lambsquarters [22]
  O: lambsquarters, herbicidal effect rating: 0 (Herbicidal rate of 5% or less (almost no effect))
Barnyard grass [23]
  herbicidal effect on H (barnyard grass), rating 0-5: 0 (Herbicidal rate of 5% or less (almost no effect))
Blackgrass [24]
  J: blackgrass, herbicidal effect rating: 0 (Herbicidal rate of 5% or less (almost no effect))
Southern crabgrass [25]
  F: southern crabgrass, herbicidal effect: 0 (Herbicidal rate of 5% or less (almost no effect))
